By inhibition is commonly meant the relative decrease from the control value, in per cent.

The assay relates to PMA-induced release of IL-6R from PBMCs from patients suffering from rheumatoid arthritis. Nature of the assay: ELISA-based IL-6R release assay, PBMCs from RA-patients. The class given is cell-based. The following applies: Homo sapiens, PBMC; chimeric antibodies (CHO) 1 μg/ml; Batimastat 10 μM; PMA 25 ng/ml, 24 hours. The method, then:
In contrast to Example 34, where the inhibitory effects of the antibodies of the present disclosure on PMA-induced release of endogenous IL-6R from primary human material obtained from healthy donors using peripheral blood mononuclear cells (PBMCs) were tested, this analysis was conducted to analyze the inhibitory effects of the antibodies of the present disclosure on PMA-induced release of endogenous IL-6R from primary human material obtained from patients suffering from rheumatoid arthritis (RA-patients).
In brief, on day 1, Nunc black MaxiSorp® 96-well plates (Thermo Fisher Scientific, USA) were coated overnight with 100 μl per well of mouse anti-human IL-6R capture antibody (provided as part of the DuoSet ELISA kit) at 4 μg/ml TBS at 4° C. […] Using an infinite M1000 (Tecan Group, Switzerland) microplate reader, the fluorescence of each well was collected at an excitation wavelength of 435 nm and an emission wavelength of 555 nm.
A general note: ELISA stands for enzyme-linked immunosorbent assay.

Turning to `CNC(=O)[C@H](Cc1ccccc1)NC(=O)[C@H](CC(C)C)[C@H](CSc1cccs1)C(=O)NO` [Batimastat], the inhibition at 10 µM amounted to 104%.

For the origin of these results see patent US20240174744A1, “METHODS OF TREATMENT USING PROTEIN BINDERS TO IRHOM2 EPITOPES” (SCIRHOM GMBH, priority 2021, published 2024).
